From patent US20190284149A1, “ARYL HYDROCARBON RECEPTOR MODULATOR” (ARIAGEN, INC., priority 2014, published 2019) come the findings set out here.

pEC50: −log10 of the molar value.

One assay addresses T1, AhR receptor (Homo sapiens, UniProt P35869).
T1 construct: expression of native (Human Hepatoma Huh-7) AhR receptor reporter gene cells; endogenous in cells; host or cells: Human hepatoma Huh-7 reporter cells (firefly luciferase under receptor-specific response elements)
T1 sequence (P35869 11-848): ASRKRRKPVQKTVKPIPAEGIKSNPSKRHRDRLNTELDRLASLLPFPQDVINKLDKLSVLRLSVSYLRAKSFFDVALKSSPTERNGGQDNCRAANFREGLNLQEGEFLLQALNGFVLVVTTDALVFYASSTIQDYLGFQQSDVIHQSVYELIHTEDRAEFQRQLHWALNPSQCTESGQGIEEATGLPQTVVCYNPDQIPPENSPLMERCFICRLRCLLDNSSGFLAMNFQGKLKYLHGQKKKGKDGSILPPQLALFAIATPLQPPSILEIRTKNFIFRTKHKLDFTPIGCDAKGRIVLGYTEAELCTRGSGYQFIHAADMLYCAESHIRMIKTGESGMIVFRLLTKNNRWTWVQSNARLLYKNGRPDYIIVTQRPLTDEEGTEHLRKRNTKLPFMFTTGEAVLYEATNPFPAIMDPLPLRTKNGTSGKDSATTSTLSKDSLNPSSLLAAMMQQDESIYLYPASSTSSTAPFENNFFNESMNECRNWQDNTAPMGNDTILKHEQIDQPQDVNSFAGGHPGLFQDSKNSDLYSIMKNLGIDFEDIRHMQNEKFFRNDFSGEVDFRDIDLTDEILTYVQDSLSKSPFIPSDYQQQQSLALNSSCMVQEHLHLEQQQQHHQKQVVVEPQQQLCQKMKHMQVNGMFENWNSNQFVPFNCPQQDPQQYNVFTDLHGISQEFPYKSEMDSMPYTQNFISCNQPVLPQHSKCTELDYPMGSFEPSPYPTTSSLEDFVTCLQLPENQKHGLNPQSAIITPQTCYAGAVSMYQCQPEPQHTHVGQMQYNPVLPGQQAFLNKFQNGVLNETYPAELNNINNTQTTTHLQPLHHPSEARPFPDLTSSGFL
Nature of the assay: AhR agonism assay (luciferase reporter gene cells).
Conditions: not given
Type of assay: cell-based. As to the method: Assay Materials (plasmids): expression of native (Human Hepatoma Huh-7) AhR receptor reporter gene cells, the reporter vector includes functional firefly luciferase gene linked to upstream receptor-specific genetic response elements (GRE).
The AhR agonism assay comprises the following three steps:
1. Cell implantation: a suspension of AhR receptor cells was prepared in cell recovery medium (CRM; FBS containing 10% activated carbon). Then, the prepared suspension (100 μl) was dispensed into wells of a white 96-well culture plate.
2. Right before the beginning of the experiment, Master Stocks were diluted to “2× concentration” treatment media with appropriate compound screening media (CSM: FBS containing 10% activated carbon). The test compounds were subjected to gradient dilution with CSM medium containing 0.2% DMSO, so that the final concentration of DMSO in each experimental well for each treatment group was 0.1%. […] The experimental plate was placed in an incubator at 37° C. for 24 h.
3. Fluorescence detection and analysis: after completion of the incubation, the treatment media were discarded and 100 μL/well of luciferase detection reagent was added. The Ave RLU (average relative fluorescence intensity) of each well and the coefficient of variation for each experimental group were determined. The activity of AhR receptor with various concentrations of the test compounds was quantitatively determined using a ratio of Ave RLU^Test Cmpd of various concentrations of the test compounds in the experimental group to Ave RLU^Vehicle of the blank control group, and fold activation and EC50 were determined.
For data processing method, refer to J. Biomol.
`COC(=O)c1csc(C(=O)c2cn(CO)c3ccccc23)n1` [Compound 37] had a pEC50 of 6.00 to 9.00.

In turn, `COC(=O)c1nsc(C(=O)c2c[nH]c3ccccc23)n1` [Compound 8] gave a pEC50 of 5.00 to 6.00. `COC(=O)c1ccc(C(=O)c2c[nH]c3ccccc23)nc1` [Compound 18] gave a pEC50 of 5.00 to 6.00. The same measure, in the same setting: under `CC(C)c1nc(C(=O)c2c[nH]c3ccccc23)cs1` [Compound 9] stands 6.00 to 9.00. `COC(=O)c1csc(C(=O)c2c[nH]c3ccccc23)c1` [Compound 15] showed a pEC50 of 4.00 to 5.00.

Staying with this assay, now noted: Human Hepatoma Huh-7 AhR reporter gene cells, 24 h incubation at 37° C., 0.1% DMSO; read-out: EC50.
Take `COC(=O)c1csc(/C(=N\O)c2c[nH]c3ccccc23)n1` [Compound 26-2]: the pEC50 is 5.00 to 6.00. Same read-out and setting: under `COC(=O)c1csc(C(=O)c2cn(COC(=O)[C@@H](N)C(C)C)c3ccccc23)n1` [Compound 1-2] stands 6.00 to 9.00; under `CC(C)[C@H](NC(=O)OC(C)(C)C)C(=O)n1cc(C(=O)c2nc(-c3nccs3)cs2)c2ccccc21` [Compound 42-1], 6.00 to 9.00. The same measure, in the same setting: under `COC(=O)c1c[nH]c(C(=O)c2c[nH]c3ccccc23)n1` [Compound 23] stands 6.00 to 9.00. Same read-out and setting: under `O=C(c1nc(-c2ccco2)cs1)c1c[nH]c2ccccc12` [Compound 40] stands 6.00 to 9.00; under `COC(=O)c1csc(C(=O)c2cn(C3OC(COC(C)=O)C(O)C(O)C3O)c3ccccc23)n1` (centres unmarked) [Compound 38-3], 6.00 to 9.00; under `COC(=O)c1csc(C(=O)c2cn(C3OC(CO)C(O)C(O)C3O)c3ccccc23)n1` (centres unmarked) [Compound 38-4], 6.00 to 9.00.

With `O=C(c1nc(-c2c[nH]cn2)cs1)c1c[nH]c2ccccc12` [Compound 43-2], the pEC50 is 6.00 to 9.00. On the same count and under the same terms, under `COCCOCCOCCOCC(=O)OCC(=O)OCn1cc(C(=O)c2nc(C(=O)OC)cs2)c2ccccc21` [Compound 7] stands 6.00 to 9.00; under `COC(=O)C1CSC(C(=O)c2c[nH]c3ccc(OC)cc23)=N1` (centres unmarked) [Compound 19-1], 6.00 to 9.00; under `COC(=O)c1csc(Cc2c[nH]c3ccccc23)n1` [Compound 28], 4.00 to 5.00.

On to `COC(=O)c1coc(-c2csc(C(=O)c3c[nH]c4ccccc34)n2)n1` [Compound 30-2], for which the pEC50 was 6.00 to 9.00. On the same count and under the same terms, under `O=C(c1nc(-c2cnccn2)cs1)c1c[nH]c2ccccc12` [Compound 39] stands 6.00 to 9.00; under `Nc1nc(-c2csc(C(=O)c3c[nH]c4ccccc34)n2)cs1` [Compound 44], 6.00 to 9.00. On the same count and under the same terms, under `COCCOCCOCCOCC(=O)OCn1cc(C(=O)c2nc(C(=O)OC)cs2)c2ccccc21` [Compound 6] stands 6.00 to 9.00; under `COC(=O)CNC(=O)c1csc(C(=O)c2c[nH]c3ccccc23)n1` [Compound 27], 6.00 to 9.00; under `COC(=O)c1csc(C(=O)c2cn(C3OC(COC(C)=O)C(OC(C)=O)C(OC(C)=O)C3OC(C)=O)c3ccccc23)n1` (centres unmarked) [Compound 38-2], 6.00 to 9.00. As for `COC(=O)c1nnc(C(=O)c2c[nH]c3ccccc23)o1` [Compound 34], the pEC50 is 5.00 to 6.00. Same read-out and setting: under `COC(=O)c1csc(C(=O)c2cn(C3OC(COC(C)=O)C(OC(C)=O)C(OC(C)=O)C3OC(C)=O)c3ccccc23)n1` (centres unmarked) [Compound 38-1] stands 6.00 to 9.00; under `CC(C)[C@H](N)C(=O)n1cc(C(=O)c2nc(-c3nccs3)cs2)c2ccccc21` [Compound 42-2], 6.00 to 9.00; under `COC(=O)c1csc(C(=O)c2c[nH]c3ccc(OC)cc23)n1` [Compound 19-2], 6.00 to 9.00.

As to `O=C(c1nc(-c2nnc[nH]2)cs1)c1c[nH]c2ccccc12` [Compound 36], the pEC50 is 6.00 to 9.00. On the same count and under the same terms, under `COC(=O)COCn1cc(C(=O)c2nc(C(=O)OC)cs2)c2ccccc21` [Compound 3] stands 6.00 to 9.00. On to `CC(C)c1cnc(C(=O)c2c[nH]c3ccccc23)s1` [Compound 10], for which the pEC50 is 4.00 to 5.00.

As to `O=C(c1nc(-c2ccccn2)cs1)c1c[nH]c2ccccc12` [Compound 22], the pEC50 was 6.00 to 9.00. Same read-out and setting: under `COC(=O)[C@@H]1COC(c2csc(C(=O)c3c[nH]c4ccccc34)n2)=N1` [Compound 30-1] stands 6.00 to 9.00; under `O=C(c1nc(C2=NCCS2)cs1)c1c[nH]c2ccccc12` [Compound 31-1], 6.00 to 9.00. Regarding `N#Cc1csc(C(=O)c2c[nH]c3ccccc23)n1` [Compound 29], the pEC50 was 6.00 to 9.00.

Regarding `O=C(c1nc(C2CC2)cs1)c1c[nH]c2ccccc12` [Compound 41], the pEC50 was 6.00 to 9.00.

With `COC(=O)c1csc(C(=O)c2cn(COC(=O)[C@@H](N)C(C)(C)C)c3ccccc23)n1` [Compound 2-2], the pEC50 was 6.00 to 9.00. Take `COC(=O)c1csc(/C(=N/O)c2c[nH]c3ccccc23)n1` [Compound 26-1]: the pEC50 is 5.00 to 6.00.

`COCCOCCOCCOC(=O)n1cc(C(=O)c2nc(C(=O)OC)cs2)c2ccccc21` [Compound 5]: the pEC50 is 6.00 to 9.00. Same read-out and setting: under `CO/N=C(\c1nc(C(=O)OC)cs1)c1c[nH]c2ccccc12` [Compound 25-2] stands 5.00 to 6.00. The same measure, in the same setting: under `O=C(c1nc(C2=NCCO2)cs1)c1c[nH]c2ccccc12` [Compound 33-1] stands 6.00 to 9.00. Regarding `O=C(c1nc(-c2ncco2)cs1)c1c[nH]c2ccccc12` [Compound 33-2], the pEC50 is 6.00 to 9.00.

For the molecule `COC(=O)c1csc(C(=O)c2cn(C(=O)[C@@H](N)C(C)C)c3ccccc23)n1` [Compound 4-2], the negative-log EC50 (pEC50) is 6.00 to 9.00.

Consider `CO/N=C(/c1nc(C(=O)OC)cs1)c1c[nH]c2ccccc12` [Compound 25-1], for which the pEC50 was 5.00 to 6.00. Same read-out and setting: under `COC(=O)c1ccc(C(=O)c2c[nH]c3ccccc23)n1C` [Compound 12] stands 6.00 to 9.00; under `O=C(c1nc(-c2nccs2)cs1)c1c[nH]c2ccccc12` [Compound 31-2], 6.00 to 9.00.

For the molecule `O=C(c1nc(-c2nnn[nH]2)cs1)c1c[nH]c2ccccc12` [Compound 35], the pEC50 was 5.00 to 6.00. As for `COC(=O)c1csc(-c2csc(C(=O)c3c[nH]c4ccccc34)n2)n1` [Compound 32-2], the pEC50 was 6.00 to 9.00. On the same count and under the same terms, under `COC(=O)C1CSC(c2csc(C(=O)c3c[nH]c4ccccc34)n2)=N1` (centres unmarked) [Compound 32-1] stands 6.00 to 9.00.
